Laboratory results as given in the kinase profiling compilation of Christmann-Franck et al. (2016).
One block for each compound: values may come before it.

Columns and labels:
Assay in all cases: KINOMEscan competition binding
Conditions in all cases: compound 10.0 µM
[1] = tested on: ABL1 (human), P00519 [H396P]
ACVRL1 (human) = ACVRL1 (human) (UniProt P37023)
AKT1 (human) = AKT1 (human) (UniProt P31749)
AKT3 (human) = AKT3 (human) (UniProt Q9Y243)
BMPR2 (human) = BMPR2 (human) (UniProt Q13873)
BMX (human) = BMX (human) (UniProt P51813)
BTK (human) = BTK (human) (UniProt Q06187)
BTK (human), sequence (Q06187 whole entry, looked up): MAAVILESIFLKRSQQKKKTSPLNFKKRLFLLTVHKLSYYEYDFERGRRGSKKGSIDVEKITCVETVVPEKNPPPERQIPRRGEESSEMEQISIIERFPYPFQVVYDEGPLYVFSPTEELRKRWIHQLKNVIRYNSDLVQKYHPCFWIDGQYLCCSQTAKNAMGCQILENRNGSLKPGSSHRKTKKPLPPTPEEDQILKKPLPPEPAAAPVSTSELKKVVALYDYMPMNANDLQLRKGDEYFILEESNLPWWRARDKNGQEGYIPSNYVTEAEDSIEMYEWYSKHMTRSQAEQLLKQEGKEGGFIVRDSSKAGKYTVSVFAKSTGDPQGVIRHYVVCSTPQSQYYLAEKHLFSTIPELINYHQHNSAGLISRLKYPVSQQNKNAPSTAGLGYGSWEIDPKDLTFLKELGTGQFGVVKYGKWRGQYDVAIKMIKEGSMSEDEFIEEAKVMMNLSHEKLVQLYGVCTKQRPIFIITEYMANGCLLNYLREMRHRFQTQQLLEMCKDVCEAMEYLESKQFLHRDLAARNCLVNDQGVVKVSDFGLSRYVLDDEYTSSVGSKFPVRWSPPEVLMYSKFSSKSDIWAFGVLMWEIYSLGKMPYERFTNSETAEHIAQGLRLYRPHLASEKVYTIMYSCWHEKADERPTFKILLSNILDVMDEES

CAMK2A (human) = CAMK2A (human) (UniProt Q9UQM7)
CDK17 (human) = CDK17 (human) (UniProt Q00537)
CDK17 (human), sequence (Q00537 whole entry, looked up): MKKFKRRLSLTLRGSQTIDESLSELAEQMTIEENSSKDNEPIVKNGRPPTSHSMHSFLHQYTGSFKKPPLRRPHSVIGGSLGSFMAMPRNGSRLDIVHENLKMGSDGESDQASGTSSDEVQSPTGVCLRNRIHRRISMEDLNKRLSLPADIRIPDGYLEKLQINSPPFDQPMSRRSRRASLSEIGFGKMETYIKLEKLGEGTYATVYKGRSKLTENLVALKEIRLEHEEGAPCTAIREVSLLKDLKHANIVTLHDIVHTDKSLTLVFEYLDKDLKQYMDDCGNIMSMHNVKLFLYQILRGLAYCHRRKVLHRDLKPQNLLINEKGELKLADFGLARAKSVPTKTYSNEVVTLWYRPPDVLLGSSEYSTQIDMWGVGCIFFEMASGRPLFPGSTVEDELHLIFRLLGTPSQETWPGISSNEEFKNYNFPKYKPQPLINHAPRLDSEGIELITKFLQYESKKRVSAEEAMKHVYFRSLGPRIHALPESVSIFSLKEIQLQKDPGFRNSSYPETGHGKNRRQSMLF

CDK8 (human) = CDK8 (human) (UniProt P49336)
[2] = tested on: EGFR (human), P00533 [752-759 del]
[3] = tested on: EGFR (human), P00533 [L858R]
EPHA3 (human) = EPHA3 (human) (UniProt P29320)
EPHA7 (human) = EPHA7 (human) (UniProt Q15375)
EPHA8 (human) = EPHA8 (human) (UniProt P29322)
ERBB2 (human) = ERBB2 (human) (UniProt P04626)
ERBB2 (human), sequence (P04626 whole entry, looked up): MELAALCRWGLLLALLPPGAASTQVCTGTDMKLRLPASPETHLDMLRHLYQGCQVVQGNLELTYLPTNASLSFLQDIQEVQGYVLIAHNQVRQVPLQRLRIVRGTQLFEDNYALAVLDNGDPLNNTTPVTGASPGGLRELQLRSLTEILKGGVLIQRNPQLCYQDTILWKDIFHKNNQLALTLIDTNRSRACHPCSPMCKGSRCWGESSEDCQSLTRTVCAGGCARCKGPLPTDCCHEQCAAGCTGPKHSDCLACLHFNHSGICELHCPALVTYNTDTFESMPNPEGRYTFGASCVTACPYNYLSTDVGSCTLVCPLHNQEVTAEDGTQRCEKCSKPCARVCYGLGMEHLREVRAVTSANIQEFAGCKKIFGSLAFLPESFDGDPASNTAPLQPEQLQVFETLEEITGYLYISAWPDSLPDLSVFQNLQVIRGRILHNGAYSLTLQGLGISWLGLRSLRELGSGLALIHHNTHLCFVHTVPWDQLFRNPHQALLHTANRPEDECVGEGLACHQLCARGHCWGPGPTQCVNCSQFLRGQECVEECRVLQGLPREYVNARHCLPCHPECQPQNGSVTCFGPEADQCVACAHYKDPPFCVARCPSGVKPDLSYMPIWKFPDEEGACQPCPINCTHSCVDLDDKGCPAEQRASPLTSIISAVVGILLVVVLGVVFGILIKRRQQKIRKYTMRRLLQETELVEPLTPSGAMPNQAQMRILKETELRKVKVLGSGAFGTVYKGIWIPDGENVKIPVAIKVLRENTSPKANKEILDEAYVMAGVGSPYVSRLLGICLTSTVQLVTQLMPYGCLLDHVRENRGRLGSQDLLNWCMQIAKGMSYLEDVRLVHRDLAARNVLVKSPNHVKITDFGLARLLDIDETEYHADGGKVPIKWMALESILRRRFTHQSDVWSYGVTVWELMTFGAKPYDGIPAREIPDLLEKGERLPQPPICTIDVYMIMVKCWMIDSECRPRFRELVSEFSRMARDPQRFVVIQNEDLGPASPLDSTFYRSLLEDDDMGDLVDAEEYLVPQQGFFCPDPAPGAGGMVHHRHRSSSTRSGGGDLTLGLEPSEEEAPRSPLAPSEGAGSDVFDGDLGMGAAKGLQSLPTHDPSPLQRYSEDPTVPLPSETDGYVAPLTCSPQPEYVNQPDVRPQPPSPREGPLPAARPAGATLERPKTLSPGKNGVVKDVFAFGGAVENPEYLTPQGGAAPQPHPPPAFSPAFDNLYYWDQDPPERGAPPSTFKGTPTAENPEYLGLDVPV

FES (human) = FES (human) (UniProt P07332)
FGR (human) = FGR (human) (UniProt P09769)
FRK (human) = FRK (human) (UniProt P42685)
MAP3K4 (human) = MAP3K4 (human) (UniProt Q9Y6R4)
MAPK7 (human) = MAPK7 (human) (UniProt Q13164)
MAPK7 (human), sequence (Q13164 whole entry, looked up): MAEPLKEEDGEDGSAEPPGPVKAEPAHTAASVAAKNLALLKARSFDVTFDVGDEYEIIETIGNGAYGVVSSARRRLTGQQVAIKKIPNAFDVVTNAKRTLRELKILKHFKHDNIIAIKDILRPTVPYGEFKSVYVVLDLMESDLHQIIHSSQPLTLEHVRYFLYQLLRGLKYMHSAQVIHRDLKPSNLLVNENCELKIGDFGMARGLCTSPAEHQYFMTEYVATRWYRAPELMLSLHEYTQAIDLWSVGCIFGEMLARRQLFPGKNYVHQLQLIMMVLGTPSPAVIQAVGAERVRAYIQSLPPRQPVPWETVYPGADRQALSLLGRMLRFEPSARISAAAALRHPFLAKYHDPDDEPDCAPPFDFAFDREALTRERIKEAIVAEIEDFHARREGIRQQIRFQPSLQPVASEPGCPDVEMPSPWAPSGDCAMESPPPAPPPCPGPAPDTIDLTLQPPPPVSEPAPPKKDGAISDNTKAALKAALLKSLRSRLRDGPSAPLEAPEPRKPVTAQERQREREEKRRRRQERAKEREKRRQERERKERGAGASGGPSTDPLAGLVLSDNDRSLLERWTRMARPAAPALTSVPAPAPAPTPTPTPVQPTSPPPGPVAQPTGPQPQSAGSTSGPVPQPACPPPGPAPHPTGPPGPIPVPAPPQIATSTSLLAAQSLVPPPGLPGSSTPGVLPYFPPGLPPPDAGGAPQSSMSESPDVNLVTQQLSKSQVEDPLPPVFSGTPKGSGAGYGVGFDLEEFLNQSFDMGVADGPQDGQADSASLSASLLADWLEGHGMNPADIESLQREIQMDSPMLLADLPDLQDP

MAPKAPK2 (human) = MAPKAPK2 (human) (UniProt P49137)
MAPKAPK5 (human) = MAPKAPK5 (human) (UniProt Q8IW41)
NEK1 (human) = NEK1 (human) (UniProt Q96PY6)
NEK6 (human) = NEK6 (human) (UniProt Q9HC98)
PAK4 (human) = PAK4 (human) (UniProt O96013)
PHKG1 (human) = PHKG1 (human) (UniProt Q16816)
PIK3CA (human) = PIK3CA (human) (UniProt P42336)
[4] = tested on: PIK3CA (human), P42336 [E545K]
PKN1 (human) = PKN1 (human) (UniProt Q16512)
PTK2B (human) = PTK2B (human) (UniProt Q14289)
PTK6 (human) = PTK6 (human) (UniProt Q13882)
RET (human) = RET (human) (UniProt P07949)
[5] = tested on: RET (human), P07949 [M918T]
[6] = tested on: RET (human), P07949 [V804L]
[7] = tested on: RET (human), P07949 [V804M]
SIK1 (human) = SIK1 (human) (UniProt P57059)
SRPK1 (human) = SRPK1 (human) (UniProt Q96SB4)
SRPK1 (human), sequence (Q96SB4 whole entry, looked up): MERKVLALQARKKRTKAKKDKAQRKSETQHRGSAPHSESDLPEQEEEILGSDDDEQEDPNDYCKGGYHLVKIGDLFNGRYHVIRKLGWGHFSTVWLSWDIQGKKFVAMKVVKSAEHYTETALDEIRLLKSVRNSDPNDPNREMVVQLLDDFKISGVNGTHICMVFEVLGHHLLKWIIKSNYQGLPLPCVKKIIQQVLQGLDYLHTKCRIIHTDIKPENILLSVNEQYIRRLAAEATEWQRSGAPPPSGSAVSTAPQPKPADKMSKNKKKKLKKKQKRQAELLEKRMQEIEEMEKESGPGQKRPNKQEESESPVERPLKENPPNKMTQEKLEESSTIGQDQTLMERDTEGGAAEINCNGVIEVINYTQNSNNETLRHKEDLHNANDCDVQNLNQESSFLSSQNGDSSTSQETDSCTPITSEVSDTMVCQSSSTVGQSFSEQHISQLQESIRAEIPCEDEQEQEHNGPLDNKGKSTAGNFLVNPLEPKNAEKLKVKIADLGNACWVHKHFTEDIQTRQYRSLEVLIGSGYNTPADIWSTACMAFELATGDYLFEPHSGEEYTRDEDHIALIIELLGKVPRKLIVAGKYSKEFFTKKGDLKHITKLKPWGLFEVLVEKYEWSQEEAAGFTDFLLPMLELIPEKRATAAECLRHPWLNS

STK10 (human) = STK10 (human) (UniProt O94804)
TNK2 (human) = TNK2 (human) (UniProt Q07912)
TYRO3 (human) = TYRO3 (human) (UniProt Q06418)
ULK3 (human) = ULK3 (human) (UniProt Q6PHR2)
ZAP70 (human) = ZAP70 (human) (UniProt P43403)
ZAP70 (human), sequence (P43403 whole entry, looked up): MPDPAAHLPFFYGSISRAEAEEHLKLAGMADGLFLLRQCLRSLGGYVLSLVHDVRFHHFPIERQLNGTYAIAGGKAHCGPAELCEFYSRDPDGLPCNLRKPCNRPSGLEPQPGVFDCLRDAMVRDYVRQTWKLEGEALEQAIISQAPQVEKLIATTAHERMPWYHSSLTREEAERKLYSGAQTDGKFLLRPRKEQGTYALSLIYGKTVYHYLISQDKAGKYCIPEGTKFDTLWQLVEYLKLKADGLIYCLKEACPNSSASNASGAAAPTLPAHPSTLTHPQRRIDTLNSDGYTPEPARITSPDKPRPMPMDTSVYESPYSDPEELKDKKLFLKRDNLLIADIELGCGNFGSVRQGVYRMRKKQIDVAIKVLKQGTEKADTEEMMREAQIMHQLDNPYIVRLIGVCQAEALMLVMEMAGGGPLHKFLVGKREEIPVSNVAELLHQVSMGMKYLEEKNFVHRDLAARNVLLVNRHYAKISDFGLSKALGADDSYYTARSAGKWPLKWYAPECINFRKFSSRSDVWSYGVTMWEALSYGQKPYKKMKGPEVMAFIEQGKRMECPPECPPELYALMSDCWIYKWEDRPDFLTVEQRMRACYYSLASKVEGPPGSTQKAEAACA

AKT1 (human), sequence (P31749 whole entry, looked up): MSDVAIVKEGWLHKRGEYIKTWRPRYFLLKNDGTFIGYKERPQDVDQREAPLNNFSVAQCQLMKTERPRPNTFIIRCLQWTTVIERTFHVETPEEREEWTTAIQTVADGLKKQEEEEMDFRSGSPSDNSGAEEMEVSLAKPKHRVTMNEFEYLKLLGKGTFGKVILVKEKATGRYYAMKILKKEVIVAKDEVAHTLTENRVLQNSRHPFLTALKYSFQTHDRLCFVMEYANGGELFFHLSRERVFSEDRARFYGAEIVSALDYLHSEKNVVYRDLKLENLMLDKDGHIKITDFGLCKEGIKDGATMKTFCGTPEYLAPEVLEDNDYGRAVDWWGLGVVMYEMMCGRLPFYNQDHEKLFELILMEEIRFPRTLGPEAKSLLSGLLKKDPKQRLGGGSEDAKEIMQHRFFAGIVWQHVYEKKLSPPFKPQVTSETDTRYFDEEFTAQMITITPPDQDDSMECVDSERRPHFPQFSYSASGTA

kinase still bound, per cent of control [1]: 21%
kinase still bound, per cent of control (ACVRL1 (human)): 81%
kinase still bound, per cent of control (AKT1 (human)): 100%
kinase still bound, per cent of control (AKT3 (human)): 100%
kinase still bound, per cent of control (BMPR2 (human)): 100%
kinase still bound, per cent of control (BMX (human)): 99%
kinase still bound, per cent of control (BTK (human)): 23%
kinase still bound, per cent of control (CAMK2A (human)): 90%
kinase still bound, per cent of control (CDK17 (human)): 93%
kinase still bound, per cent of control (CDK8 (human)): 55%
kinase still bound, per cent of control [2]: 69%
kinase still bound, per cent of control [3]: 28%
kinase still bound, per cent of control (EPHA3 (human)): 61%
kinase still bound, per cent of control (EPHA7 (human)): 100%
kinase still bound, per cent of control (EPHA8 (human)): 80%
kinase still bound, per cent of control (ERBB2 (human)): 5%
kinase still bound, per cent of control (FES (human)): 100%
kinase still bound, per cent of control (FGR (human)): 73%
kinase still bound, per cent of control (FRK (human)): 93%
kinase still bound, per cent of control (MAP3K4 (human)): 95%
kinase still bound, per cent of control (MAPK7 (human)): 100%
kinase still bound, per cent of control (MAPKAPK2 (human)): 96%
kinase still bound, per cent of control (MAPKAPK5 (human)): 100%
kinase still bound, per cent of control (NEK1 (human)): 95%
kinase still bound, per cent of control (NEK6 (human)): 99%
kinase still bound, per cent of control (PAK4 (human)): 94%
kinase still bound, per cent of control (PHKG1 (human)): 46%
kinase still bound, per cent of control (PIK3CA (human)): 100%
kinase still bound, per cent of control [4]: 100%
kinase still bound, per cent of control (PKN1 (human)): 69%
kinase still bound, per cent of control (PTK2B (human)): 99%
kinase still bound, per cent of control (PTK6 (human)): 82%
kinase still bound, per cent of control (RET (human)): 95%
kinase still bound, per cent of control [5]: 72%
kinase still bound, per cent of control [6]: 80%
kinase still bound, per cent of control [7]: 100%
kinase still bound, per cent of control (SIK1 (human)): 27%
kinase still bound, per cent of control (SRPK1 (human)): 100%
kinase still bound, per cent of control (STK10 (human)): 100%
kinase still bound, per cent of control (TNK2 (human)): 56%
kinase still bound, per cent of control (TYRO3 (human)): 100%
kinase still bound, per cent of control (ULK3 (human)): 95%
kinase still bound, per cent of control (ZAP70 (human)): 100%
SMILES: COc1cc(N2CCN(C)CC2)ccc1Nc1ncc2c(n1)Nc1ccccc1NC2=O

kinase still bound, per cent of control [1]: 96%
kinase still bound, per cent of control (ACVRL1 (human)): 100%
kinase still bound, per cent of control (AKT1 (human)): 100%
kinase still bound, per cent of control (AKT3 (human)): 98%
kinase still bound, per cent of control (BMPR2 (human)): 19%
kinase still bound, per cent of control (BMX (human)): 94%
kinase still bound, per cent of control (BTK (human)): 51%
kinase still bound, per cent of control (CAMK2A (human)): 7.8%
kinase still bound, per cent of control (CDK17 (human)): 85%
kinase still bound, per cent of control (CDK8 (human)): 44%
kinase still bound, per cent of control [2]: 95%
kinase still bound, per cent of control [3]: 49%
kinase still bound, per cent of control (EPHA3 (human)): 67%
kinase still bound, per cent of control (EPHA7 (human)): 97%
kinase still bound, per cent of control (EPHA8 (human)): 76%
kinase still bound, per cent of control (ERBB2 (human)): 57%
kinase still bound, per cent of control (FES (human)): 100%
kinase still bound, per cent of control (FGR (human)): 84%
kinase still bound, per cent of control (FRK (human)): 90%
kinase still bound, per cent of control (MAP3K4 (human)): 14%
kinase still bound, per cent of control (MAPK7 (human)): 48%
kinase still bound, per cent of control (MAPKAPK2 (human)): 100%
kinase still bound, per cent of control (MAPKAPK5 (human)): 84%
kinase still bound, per cent of control (NEK1 (human)): 73%
kinase still bound, per cent of control (NEK6 (human)): 100%
kinase still bound, per cent of control (PAK4 (human)): 98%
kinase still bound, per cent of control (PHKG1 (human)): 29%
kinase still bound, per cent of control (PIK3CA (human)): 49%
kinase still bound, per cent of control [4]: 37%
kinase still bound, per cent of control (PKN1 (human)): 28%
kinase still bound, per cent of control (PTK2B (human)): 100%
kinase still bound, per cent of control (PTK6 (human)): 83%
kinase still bound, per cent of control (RET (human)): 70%
kinase still bound, per cent of control [5]: 46%
kinase still bound, per cent of control [6]: 70%
kinase still bound, per cent of control [7]: 88%
kinase still bound, per cent of control (SIK1 (human)): 100%
kinase still bound, per cent of control (SRPK1 (human)): 25%
kinase still bound, per cent of control (STK10 (human)): 33%
kinase still bound, per cent of control (TNK2 (human)): 100%
kinase still bound, per cent of control (TYRO3 (human)): 100%
kinase still bound, per cent of control (ULK3 (human)): 100%
kinase still bound, per cent of control (ZAP70 (human)): 61%
SMILES: O=C1NC(=O)/C(=C/c2c[nH]c(=O)c(-c3ccc(N4CCNCC4)nc3)c2)S1
